For series [1], the system named is Morningglory (Ipomoea spp.). Format: in vivo. An excerpt:
Compounds: Sodium azide, metam sodium (Vapam HL), EPTC, sodium thiosulfate, and methyl disulfide were delivered in aqueous solutions or emulsions (5% of SEP 100 for sodium azide; 5% for Vapam; 0.25% for EPTC, 2.5% for sodium thiosulfate; 2.5% for methyl disulfide) prepared immediately before use by diluting in demineralized water while stirring with a magnetic stirrer.
Sources: SEP 100 from American Pacific Corp., metam sodium as Vapam HL (32, 7% a.i.) from AMVAC, EPTC from Gowen, sodium thiosulfate and methyl disulfide from Aldrich.
Rates: Metam sodium at 163.5 mgs a.i./kg soil-equivalent to 0, and 327 lbs a.i./acre (120 gal Vapam HL/A). Sodium azide at 75 mgs a.i./kg soil equivalent to 150 lbs a.i./A, sodium thiosulfate at 200 and 300 lbs/A; EPTC at 8 and 10 lbs/A, and methyl disulfide at 300 lbs/A.
All different possible combinations of sodium azide with the other deactivating compounds and their corresponding rates were included in the experiment together with the appropriate controls.
Application Method and Procedure: Each treatment was delivered by drenching in 100 mls aqueous volume onto the soil surface in pots (10-cm diam; PVC) containing 1 kg soil. The soil was from a cotton field (silt loam; pH 6.2; CEC<10 meq/100 gm soil; org. matter <1.0%). Sodium azide was applied on day one, and the other compounds four days later. Immediately after treatment the pots were covered by a thick (1.5 mil) clear low density polyethylene bag held tight against the outer wall of the pot by a rubber band. Three days after application of “deactivator compounds” the bags were removed and the pots were planted with morningglory seed (25 seed/pot). Counts were taken from each pot (experimental unit) at 10, 13, and 26 days after application of sodium azide. Morningglory plant tops were collected from each pot 33 days after initiation of the experiment and fresh weights were determined.
Major Pests: Morningglory (Ipomoea spp.)
Experimental Design: Randomized complete block with seven replications/treatment.
Statistical Analyses: Anova and Fischer's least significant difference (flsd) at p 0.05. Regression analyses.

The subject of series [2] is annual morningglory (Ipomoea spp.). Format: in vivo. An excerpt: The effects on herbicidal activity of combinations of SEP 100 (Na azide) with metam Na, Na thiosulfate, methyl disulfide and the herbicide EPTC (Eptam 7E, Eradicane 6.7E) were studied in greenhouse experiments. In a first experiment SEP 100 was applied by drenching (1″ acre water) at 150 lbs a.i./A to pots (4 inch diam; PVC) containing each 2.2 pounds of silt loam (pH 6.2; org. matter <1.0%) from a cotton field. Immediately after treatment each pot was covered with a clear polyethylene bag (1.5 mil). The bags were removed 4 days after, and additional applications were drenched in with: Vapam HL, at 120 gal/A; EPTC at 8 and 10 lbs ai/A; Na thiosulfate at 200 and 300 lbs ai/A; and methyl disulfide at 300 lbs ai/A. Pots were again covered with the bags for 3 days after which they were removed and pots planted with annual morningglory (Ipomoea spp.; 25 seed/pot). Some pots received only SEP 100 and others received water only. Each treatment was represented by 7 pots (experimental units) arranged in a randomized complete block design on a bench. The number of plants in each pot was determined at 10, 13, and 26 days after application of SEP 100. Momingglory plant tops were collected from each pot 33 days after initiation of the experiment and their fresh weight was determined.

Series [3] deals with morningglory. The series is described as follows: Example 2 greenhouse pot experiment, fixed Vapam HL rate with SEP 100 rates. Format: in vivo, Ipomoea spp. As to conditions: Vapam HL 60 gal/A on soil treated with SEP 100 40-120 lbs a.i./A. An excerpt:
The effects on herbicidal activity of combinations of SEP 100 (Na azide) with metam Na, Na thiosulfate, methyl disulfide and the herbicide EPTC (Eptam 7E, Eradicane 6.7E) were studied in greenhouse experiments. In a first experiment SEP 100 was applied by drenching (1″ acre water) at 150 lbs a.i./A to pots (4 inch diam; PVC) containing each 2.2 pounds of silt loam (pH 6.2; org. matter <1.0%) from a cotton field. Immediately after treatment each pot was covered with a clear polyethylene bag (1.5 mil). […] The number of plants in each pot was determined at 10, 13, and 26 days after application of SEP 100. Momingglory plant tops were collected from each pot 33 days after initiation of the experiment and their fresh weight was determined.
A second experiment explored the interaction between a fixed rate of Vapam HL (60 gal/A) and applications of SEP 100 in the 40-120 lbs a.i./A range. The methods and procedure followed were as for the first experiment except that weed counts were taken at 13 and 17 days after application and plant top weights were determined 32 days after initiation of the experiment.

The subject of series [4] is morningglory. An excerpt: Compounds: sodium azide and metam sodium (Vapam HL) were delivered in aqueous solutions (1.0% of SEP 100 for sodium azide; 5% for Vapam) prepared immediately before use by diluting in demineralized water while stirring with a magnetic stirrer.
Source: SEP 100 from American Pacific Corp., and metam sodium as Vapam HL (32, 7% a.i.) from AMVAC.
Rates: Metam sodium at 0, and 82 mgs a.i./kg soil-equivalent to 0, and 60 gal/A. Sodium azide at 0, 20, 40 and 60 mgs a.i./kg soil equivalent to 0, 40, 80, and 120 lbs a.i./A, respectively. Each metam sodium rate was applied to soil in combination with each sodium azide dose.

In a further series the test system is warm season turf species. As to conditions: cited from earlier work.
Where [5] appears, read: applied 4 days after sodium azide 150 lbs a.i./A, metam sodium 327 lbs a.i./acre, sodium thiosulfate 200 and 300 lbs/A, methyl disulfide 300 lbs/A, 10, 13, 26 days.

Entries after “also recorded” stand apart in the source; their conditions may differ. Read-outs that look alike come from different tables or passages of the source.

As for `CCCN(CCC)C(=O)SCC` [EPTC, S-ethyl dipropylthiocarbamate], the “herbicidal activity against morningglory” value in series [1] (EPTC 8 and 10 lbs/A, sodium azide 150 lbs a.i./A) is “strongly herbicidal”; in series [2] (EPTC 8 and 10 lbs ai/A, SEP 100 150 lbs a.i./A), “strongly herbicidal”.

In the case of `CNC(=S)S` [metam sodium, sodium methyl dithiocarbamate], in the series with morningglory [3] (32 days), the “effect on morningglory top weights (FIG. 2B)” value is recorded as “diminished herbicidal activity of sodium azide”. For the same compound, the “effect on herbicidal activity of Na azide (number of morningglory plants, FIG. 2A)” value in the series on morningglory [3] (counts at 13 and 17 days) is reported as “diminishes the herbicidal activity of sodium azide”. Besides, in series [1] (setting [5]), the “effect on herbicidal activity of sodium azide (number of morningglory plants per pot, FIGS. 3A-3C)” value is “significantly reduced the herbicidal activity of sodium azide; also recorded: nullified the herbicidal activity of sodium azide”. Also, the “morningglory growth / top weights (FIG. 3D)” value in series [1] (sodium azide 150 lbs a.i./A, then metam sodium 327 lbs a.i./acre, 33 days) is “synergistic beneficial effects”. The “effect on morningglory top weights” value in the series with morningglory [4] (metam sodium 60 gal/A on soil previously treated with sodium azide) is on record as “synergistic beneficial effects”. Besides, the “effect on herbicidal activity of sodium azide (number of morningglory plants per pot, FIGS. 4A-4C)” value with morningglory [4] (metam sodium 60 gal/A with sodium azide 0, 40, 80, 120 lbs a.i./A, 13, 17, 30 days) is given as “nullified the herbicidal activity of sodium azide”.

On to `CSSC` [methyl disulfide], for which, in series [1] (setting [5]), the “effect on herbicidal activity of sodium azide (number of morningglory plants per pot, FIGS. 3A-3C)” value is on record as “inconclusive”. Also, in series [2] (applied 4 days after SEP 100 150 lbs a.i./A, Vapam HL 120 gal/A, Na thiosulfate 200 and 300 lbs ai/A, methyl disulfide 300 lbs ai/A, counts at 10, 13, 26 days), the “effect on herbicidal activity of Na azide (number of morningglory plants, FIG. 1A)” value is given as “little effect”.

For `[N-]=[N+]=[N-]` [sodium azide], the “plant back interval required for successful establishment” value in the series with warm season turf species is 3-4 weeks.

On to `O=S([O-])([O-])=S.[Na+].[Na+]` [sodium thiosulfate], for which the “effect on herbicidal activity of sodium azide (number of morningglory plants per pot, FIGS. 3A-3C)” value in series [1] (in vivo) was “inconclusive”. In addition, in series [2] (in vivo), the “effect on herbicidal activity of Na azide (number of morningglory plants, FIG. 1A)” value is given as “little effect”.

The values are drawn from patent US20080214398A1, “Herbicidal activities of combinations of sodium azide with sulfur containing and other deactivating compounds” (priority 2005, published 2008).
